Columns and labels:
[1] = target: T1, 5-hydroxytryptamine receptor 2C (Homo sapiens, UniProt P28335)
T1 sequence (P28335 whole entry): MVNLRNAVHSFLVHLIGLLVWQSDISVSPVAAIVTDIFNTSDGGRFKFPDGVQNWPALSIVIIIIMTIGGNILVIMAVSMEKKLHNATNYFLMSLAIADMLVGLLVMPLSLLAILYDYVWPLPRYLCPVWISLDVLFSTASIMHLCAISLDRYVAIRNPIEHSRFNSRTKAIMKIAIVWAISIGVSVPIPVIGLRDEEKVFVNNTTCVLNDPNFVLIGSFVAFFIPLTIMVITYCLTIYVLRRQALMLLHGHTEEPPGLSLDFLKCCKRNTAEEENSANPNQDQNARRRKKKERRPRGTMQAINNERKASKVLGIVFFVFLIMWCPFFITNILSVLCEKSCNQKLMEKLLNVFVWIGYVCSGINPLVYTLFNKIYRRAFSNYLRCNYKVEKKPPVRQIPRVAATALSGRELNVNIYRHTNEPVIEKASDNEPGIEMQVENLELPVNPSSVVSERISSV

[2] = target: T1, 5-hydroxytryptamine receptor 2C; remark: listed apart in the source
[3] = target: T2, 5-hydroxytryptamine receptor 2B (Homo sapiens, UniProt P41595); experiment: Displacement of [125I]-DOI from 5-HT2B receptor (unknown origin) expressed in HEK293 cell membrane assessed as inhibition constant incubated for 1 hr by scintillation counter analysis; type: cell membranes
[4] = target: T3, 5-hydroxytryptamine receptor 2A (Homo sapiens, UniProt P28223); experiment: Displacement of [125I]-DOI from 5-HT2A receptor (unknown origin) expressed in HEK293 cell membrane assessed as inhibition constant incubated for 1 hr by scintillation counter analysis; type: cell membranes
[5] = target: T2, 5-hydroxytryptamine receptor 2B; experiment: Displacement of [125I]-DOI from 5-HT2B receptor (unknown origin) expressed in HEK293 cell membrane incubated for 1 hr by scintillation counter analysis; type: cell membranes
[6] = target: T3, 5-hydroxytryptamine receptor 2A; experiment: Displacement of [125I]-DOI from 5-HT2A receptor (unknown origin) expressed in HEK293 cell membrane incubated for 1 hr by scintillation counter analysis; type: cell membranes
Rattus norvegicus [7] = experiment: Hypophagic effect in fasted male Sprague-Dawley rat assessed as inhibition of food intake at 10 mg/kg, po measured after 1 hr relative to control; type: functional; conditions: for inhibition (INH): 10 mg/kg; for inhibition in vivo at 10 mg/kg: Rattus norvegicus, Sprague-Dawley, po
[8] = Drug concentration in plasma of fasted male Sprague-Dawley rat assessed as inhibition of food intake at 10 mg/kg, po measured after 1 hr relative to control; type: organism-based
Rattus norvegicus [9] = experiment: Hypophagic effect in fasted male Sprague-Dawley rat assessed as effective dose administered orally measured after 1 hr relative to control; type: functional; conditions: route po
Rattus norvegicus [10] = experiment: Hypophagic effect in fasted male Sprague-Dawley rat assessed as inhibition of food intake at 5 mg/kg, po measured after 1 hr relative to control; type: functional
[11] = Drug concentration in brain of fasted male Sprague-Dawley rat assessed as inhibition of food intake at 10 mg/kg, po measured after 1 hr relative to control; type: organism-based; conditions: read-out: Ct
Rattus norvegicus [12] = organism: Rattus norvegicus; experiment: animal or person; conditions: Sprague-Dawley, 1 h, read-out: INH
Rattus norvegicus [13] = organism: Rattus norvegicus; experiment: animal or person; conditions: Sprague-Dawley, po, 1 h, read-out: INH

T2 sequence (P41595 whole entry): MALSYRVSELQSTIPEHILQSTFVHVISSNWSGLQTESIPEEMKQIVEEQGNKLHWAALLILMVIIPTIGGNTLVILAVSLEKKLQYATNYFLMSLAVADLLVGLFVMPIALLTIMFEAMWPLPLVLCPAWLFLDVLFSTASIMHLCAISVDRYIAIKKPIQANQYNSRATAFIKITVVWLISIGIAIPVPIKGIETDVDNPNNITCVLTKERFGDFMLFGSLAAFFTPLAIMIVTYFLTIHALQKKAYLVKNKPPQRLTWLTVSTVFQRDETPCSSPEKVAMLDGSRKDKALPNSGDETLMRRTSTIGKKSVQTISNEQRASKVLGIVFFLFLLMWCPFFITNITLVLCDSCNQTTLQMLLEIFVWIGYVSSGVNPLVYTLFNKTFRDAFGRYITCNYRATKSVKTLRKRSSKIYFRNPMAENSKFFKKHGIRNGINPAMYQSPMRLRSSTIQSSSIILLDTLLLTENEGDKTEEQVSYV
T3 sequence (P28223 whole entry): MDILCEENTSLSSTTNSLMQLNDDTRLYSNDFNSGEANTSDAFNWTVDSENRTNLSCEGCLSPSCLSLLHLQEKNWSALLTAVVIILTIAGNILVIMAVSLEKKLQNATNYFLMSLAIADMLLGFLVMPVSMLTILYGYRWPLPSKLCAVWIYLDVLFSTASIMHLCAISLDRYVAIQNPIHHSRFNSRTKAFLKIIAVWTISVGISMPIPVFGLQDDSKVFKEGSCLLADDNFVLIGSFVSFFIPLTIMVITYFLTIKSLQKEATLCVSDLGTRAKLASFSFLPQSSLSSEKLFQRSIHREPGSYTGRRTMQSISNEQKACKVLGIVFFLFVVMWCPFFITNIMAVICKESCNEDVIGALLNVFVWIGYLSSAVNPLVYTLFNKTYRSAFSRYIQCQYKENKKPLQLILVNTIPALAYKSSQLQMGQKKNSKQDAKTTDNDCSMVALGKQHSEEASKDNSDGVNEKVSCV

Row | Compound | Ki [1] | EC50 [2] | Ki [3] | Ki [4] | EC50 [5] | EC50 [6] | also measured
1 | CCNC(=O)c1ccc2c3c1C(CC(F)(F)F)CN3CCNC2 (racemic) | 72 nM | 45 nM | 12400 nM | 1620 nM |  |  | 
2 | CNC(=O)c1ccc2c3c1C(CC(F)(F)F)CN3CCNC2 (single isomer, unassigned; (-)) |  |  |  |  |  |  | inhibition (INH) (Rattus norvegicus [7]): 0%
3 | COCCNC(=O)c1ccc2c3c1C(CC(F)(F)F)CN3CCNC2 (racemic) | 38 nM | 17 nM | > 50000 nM | 217 nM |  |  | 
4 | O=C(NCC1CC1)c1ccc2c3c1CCN3CCNC2 | 320 nM | 360 nM | 17800 nM | 17800 nM | > 50000 nM | > 50000 nM | 
5 | CN(C)C(=O)c1ccc2c3c1CCN3CCNC2 |  | > 30000 nM |  |  | > 50000 nM | > 50000 nM | 
6 | CNC(=O)c1ccc2c3c1CCCN3CCNC2 |  | 5600 nM |  |  | > 50000 nM | > 50000 nM | 
7 | CS(=O)(=O)CCNC(=O)c1ccc2c3c1CCN3CCNC2 | 12600 nM | > 50000 nM | > 50000 nM | > 30000 nM | > 50000 nM | > 50000 nM | 
8 | CCC1CN2CCNCc3ccc(C(=O)NCC(F)F)c1c32 (single isomer, unassigned; (+)) |  |  |  |  |  |  | concentration at 1 h [8]: 866 ng/mL; ED50 (Rattus norvegicus [9]): > 5 mg/kg; inhibition in vivo at 5 mg/kg (Rattus norvegicus [10]): 27%; concentration at 1 h [11]: 454 ng/g
9 | CNC(=O)c1ccc2c3c1C(CC(F)F)CN3CCNC2 (racemic) | 30 nM | 23 nM | 804 nM | 3780 nM |  |  | 
10 | CSCCNC(=O)c1ccc2c3c1CCN3CCNC2 | 84 nM | 59 nM | > 50000 nM | > 30000 nM | > 50000 nM | > 50000 nM | 
11 | O=C(NCC(F)(F)F)c1ccc2c3c1C(CC(F)(F)F)CN3CCNC2 (racemic) | 91 nM | 178 nM | 5150 nM | 7330 nM |  |  | 
12 | CCCCNC(=O)c1ccc2c3c1CCN3CCNC2 | 160 nM | 91 nM | 11800 nM | > 30000 nM | > 50000 nM | > 50000 nM | 
13 | COCCNC(=O)c1ccc2c3c1CCCN3CCNC2 |  | 332 nM |  |  | > 50000 nM | > 50000 nM | 
14 | CCC1CN2CCNCc3ccc(C(=O)NC)c1c32 (single isomer, unassigned; (+)) |  |  |  |  |  |  | inhibition (INH) (Rattus norvegicus [7]): 63%; concentration at 1 h [8]: 1010 ng/mL; ED50 (Rattus norvegicus [9]): 6.4 mg/kg; concentration at 1 h [11]: 222 ng/g
15 | O=C(NC1CC1)c1ccc2c3c1CCN3CCNC2 | 380 nM | 400 nM | 9650 nM | 21800 nM | > 50000 nM | > 50000 nM | 
16 | CCOCCNC(=O)c1ccc2c3c1CCCN3CCNC2 | 232 nM | 193 nM | > 50000 nM | > 50000 nM | > 50000 nM | > 50000 nM | 
17 | CCCOCCNC(=O)c1ccc2c3c1CCN3CCNC2 | 19 nM | 15 nM | 2510 nM | 506 nM | > 50000 nM | > 50000 nM | 
18 | CCC1CN2CCNCc3ccc(C(=O)NC)c1c32 (single isomer, unassigned; (-)) |  |  |  |  |  |  | inhibition (INH) (Rattus norvegicus [7]): 0%
19 | O=C(NCCCl)c1ccc2c3c1CCN3CCNC2 | 61 nM | 33 nM | 2490 nM | 18900 nM | > 50000 nM | > 50000 nM | 
20 | COCCNC(=O)c1ccc2c3c1CCN3CCNC2 |  |  |  |  |  |  | inhibition in vivo at 10 mg/kg (Rattus norvegicus [12]): 7%; inhibition in vivo at 10 mg/kg (Rattus norvegicus [7]): 9%; inhibition in vivo at 20 mg/kg (Rattus norvegicus [13]): 25%
21 | CNC(=O)c1ccc2c3c1C(CC(F)(F)F)CN3CCNC2 (single isomer, unassigned; (+)) |  |  |  |  |  |  | inhibition (INH) (Rattus norvegicus [7]): 83%; concentration at 1 h [8]: 1660 ng/mL; ED50 (Rattus norvegicus [9]): 5.2 mg/kg; inhibition in vivo at 5 mg/kg (Rattus norvegicus [10]): 41%; concentration at 1 h [11]: 440 ng/g
22 | CCSCCNC(=O)c1ccc2c3c1CCN3CCNC2 | 29 nM | 15 nM | > 50000 nM | 17800 nM | > 50000 nM | > 50000 nM | 
23 | CCCNC(=O)c1ccc2c3c1C(CC(F)(F)F)CN3CCNC2 (single isomer, unassigned; (+)) |  |  |  |  |  |  | inhibition in vivo at 10 mg/kg (Rattus norvegicus [7]): 53%
24 | O=C(NCC(F)F)c1ccc2c3c1C(CC(F)(F)F)CN3CCNC2 (racemic) | 25 nM | 14 nM | > 50000 nM | 2680 nM |  |  | 

The next lines start with results.

Row | Ki [1] | EC50 [2] | Ki [3] | Ki [4] | EC50 [5] | EC50 [6] | Compound | also measured
25 | 210 nM | 252 nM | 8160 nM | > 30000 nM | > 50000 nM | > 50000 nM | CCNC(=O)c1ccc2c3c1CCN3CCNC2 | 
26 | 18 nM | 21 nM | 1670 nM | 2630 nM | > 50000 nM | > 50000 nM | O=C(NCCOc1ccccc1)c1ccc2c3c1CCN3CCNC2 | 
27 | 121 nM | 80 nM | > 50000 nM | 212 nM |  |  | CCC1CN2CCNCc3ccc(C(=O)NCCF)c1c32 (racemic) | 
28 |  | 400 nM |  |  | > 50000 nM | > 50000 nM | O=C(NCC(F)F)c1ccc2c3c1CCN3CCNC2 | 
29 | 1150 nM | 3920 nM | 8760 nM | > 30000 nM | > 50000 nM | > 50000 nM | CC(C)NC(=O)c1ccc2c3c1CCN3CCNC2 | 
30 | 249 nM | 430 nM | > 50000 nM | > 30000 nM | > 50000 nM | > 50000 nM | O=C(NCCF)c1ccc2c3c1CCN3CCNC2 | 
31 | 500 nM | 2700 nM |  |  | > 50000 nM | > 50000 nM | NC(=O)c1ccc2c3c1CCN3CCNC2 | 
32 |  | > 50000 nM |  |  | > 50000 nM | > 50000 nM | O=C(NCC(F)(F)F)c1ccc2c3c1CCN3CCNC2 | 
33 | 43 nM | 33 nM | 15500 nM | 6070 nM | > 50000 nM | > 50000 nM | CCOCCNC(=O)c1ccc2c3c1CCN3CCNC2 | inhibition in vivo at 10 mg/kg (Rattus norvegicus [7]): 26%
34 | 75 nM | 57 nM | > 50000 nM | > 30000 nM | > 50000 nM | > 50000 nM | CC(C)OCCNC(=O)c1ccc2c3c1CCN3CCNC2 | 
35 | 3070 nM | 7400 nM | > 50000 nM | > 30000 nM | > 50000 nM | > 50000 nM | COCC(C)NC(=O)c1ccc2c3c1CCN3CCNC2 (stereo not given) | 
36 | 348 nM | 820 nM | 7730 nM | 830 nM | > 50000 nM | > 50000 nM | COC(C)CNC(=O)c1ccc2c3c1CCN3CCNC2 (stereo not given) | 

Reference: ChEMBL document CHEMBL6182909 (J Med Chem, 2025)
